Data taken from patent US11879893B2, “Rapid detection test for SARS-CoV-2” (priority 2020, dated 2024).
Where two headings read alike, the source gives them in different places. Marks after values point to notes of the source that are not given here. Square brackets hold non-standard residues; d marks the D form. Primed or numbered codes have the meaning given here. Peptide text beside a SMILES is read from it. * marks the point of attachment. Dabcyl′ = CN(C)c1ccc(/N=N/c2ccc(C(=O)*)cc2)cc1; Dabcyl = CN(C)c1ccc(N=Nc2ccc(C(=O)*)cc2)cc1; EDANS = O=S(=O)(O)c1cccc2c(NCCN*)cccc12; Sta = CC(C)C[C@H](N)[C@@H](O)CC(=O)O; Isovaleryl = CC(C)CC(=O)*

What was measured:
[1] = tested on: non-specific protease activity in saliva; experiment: Inhibitor test in saliva samples: non-specific protease activity; format: biochemical
Protocol: (§1) The purpose of adding protease inhibitors to the buffer is to reduce nonspecific saliva activity and increase signal to noise ratio. 29 inhibitors were tested using a competitive enzymatic activity assay of 3CL Protease in saliva samples.

3CL Protease [2] = molecular target: T1, 3CL Protease (Severe acute respiratory syndrome coronavirus 2, UniProt P0DTC1); format: biochemical, SARS-CoV-2; details: saliva samples
T1 construct: 6xHIS-tag (N); TEV-protease cleavage site (ENLYFQG) (N); made in house
Protocol: as §1

[3] = tested on: Buccal sample non-specific protease activity; experiment: Inhibitor test in buccal samples: non-specific protease activity; format: biochemical
Protocol: Optimizing Inhibitor Cocktail to Maximize Buccal Sample Non-Specific Protease Activity Inhibition
(§2) 29 inhibitors were tested using a competitive enzymatic activity assay of 3CL protease in buccal samples.

3CL = molecular target: T2, 3CL (Severe acute respiratory syndrome coronavirus 2, UniProt P0DTC1); format: biochemical, SARS-CoV-2
T2 construct: 6xHIS-tag (N); TEV-protease cleavage site (ENLYFQG) (N); made in house; host or cells: Rosetta BL21 E. coli, pET14b
Protocol: In order to find the final and optimal reaction conditions, several parameters were tested:
Reducing agent: DTT and TCEP were tested at various concentrations to see if enzyme activity was affected.

3CL Protease [4] = molecular target: T1, 3CL Protease; format: biochemical, SARS-CoV-2
Protocol: as §2

Saliva = experiment: Substrate cleavage by saliva (nonspecific activity); format: biochemical
Protocol: For these enzymatic reactions 150 ng/well enzyme was used under final and optimized assay conditions, i.e. […] Experiment were tested with 3 different saliva samples; representative results are shown.

SARS-CoV-2 3CL Pro = SARS-CoV-2 3CL Pro (Severe acute respiratory syndrome coronavirus 2, UniProt P0DTC1); details: for Enzymatic activity, Slope, SARS-CoV-2: enzyme 150 ng/reaction; for % Enz activity, SARS-CoV-2: Table 5: relative to the substrate's own protease = 100
HCoV-229E 3CL protease = molecular target: T3, HCoV-229E 3CL protease (Human coronavirus 229E, UniProt P0C6U2); experiment: Substrate cleavage by HCoV-229E 3CL protease; format: biochemical; details: for Enzymatic activity, Slope, HCoV-229E / cross reactivity SARS-CoV-2 versus HCoV-229E protease: enzyme 150 ng/reaction; for % Enz activity, HCoV-229E: Table 5: relative to the substrate's own protease = 100; for cross reactivity SARS-CoV-2 versus HCoV-229E protease: substrate 5 uM
T3 construct: 6xHIS-tag (N); TEV-protease cleavage site (ENLYFQG) (N); made in house; host or cells: Rosetta BL21 E. coli, pET14b
Protocol: (§3) Running condition: Substrate concentration-5 uM, enzyme concentration 150 ng/reaction.
(§4) Enzymatic activity (RFU/min) of SARS-CoV-2, HCoV-229E and HRV 3CL and 3C proteases using peptide (SEQ ID NO: 8) is summarized in Table 6. Substrate concentration-1 μM, enzyme concentration 150 ng/reaction.

HRV 3C protease = experiment: Substrate cleavage by HRV 3C protease; format: biochemical, Human Rhinovirus (HRV); details: for % Enz activity, HRV: Table 5: relative to the substrate's own protease = 100
Protocol: as §3, §4

[5] = Table 2: 5 μM substrate, Dabcyl/EDANS, final buffer
[6] = Table 2: 150 ng/well enzyme, 5 μM substrate, Dabcyl/EDANS, final buffer
[7] = Table 4: substrate 5 uM, enzyme 150 ng/reaction
[8] = Table 3: 1 uM substrate, 488/535 nm, gain 1400, buffer without BSA

2,6 PDA
non-specific protease activity in saliva [1]: decreased
inhibition of 3CL specific activity (3CL Protease [2]): non significant inhibition
ranking among 29 inhibitors tested [3]: four best inhibitors

O[C@@H](CS)[C@@H](O)CS [DTT]
effect of reducing agent on enzyme activity (3CL; various concentrations, DTT 5 mM): most effective at preserving enzyme activity

[Cl-].[Na+] [NaCl]
effect of potential enzyme mediator on enzyme activity (3CL): No positive effect

O=S(=O)(F)Cc1ccccc1 [PMSF]
non-specific protease activity in saliva [1]: decreased
inhibition of 3CL specific activity (3CL Protease [2]): non significant inhibition
non-specific protease activity [3]: decreased
ranking among 29 inhibitors tested [3]: four best inhibitors
inhibition of 3CL specific activity (3CL Protease [4]; buccal samples): non significant inhibition

OCC(O)CO [glycerol]
effect of potential enzyme mediator on enzyme activity (3CL): No positive effect

CC(C)CC(=O)N[C@H](C(=O)N[C@H](C(=O)N[C@@H](CC(C)C)[C@@H](O)CC(=O)N[C@@H](C)C(=O)N[C@@H](CC(C)C)[C@@H](O)CC(=O)O)C(C)C)C(C)C [pepstatin] (Isovaleryl-VV[Sta]A[Sta]-OH)
non-specific protease activity [3]: decreased
inhibition of 3CL specific activity (3CL Protease [4]): non significant inhibition

AC-DEVD-CHO
non-specific protease activity in saliva [1]: decreased
inhibition of 3CL specific activity (3CL Protease [2]): non significant inhibition

Aprotinin
non-specific protease activity in saliva [1]: decreased
inhibition of 3CL specific activity (3CL Protease [2]): non significant inhibition
non-specific protease activity [3]: decreased
inhibition of 3CL specific activity (3CL Protease [4]; buccal samples): non significant inhibition

Dabcyl-AVLQSGF-{EDANS} [Substrate#3]
Saliva (Saliva; [5]): 47 +/− 5
Enzyme (SARS-CoV-2 3CL Pro; [6]): 354 +/− 18

Dabcyl-AVLQSGFRK-EDANS ({Dabcyl′}-AVLQSGFRK-{EDANS}; SMILES CC(C)C[C@H](NC(=O)[C@@H](NC(=O)[C@H](C)NC(=O)c1ccc(/N=N/c2ccc(N(C)C)cc2)cc1)C(C)C)C(=O)N[C@@H](CCC(N)=O)C(=O)N[C@@H](CO)C(=O)NCC(=O)N[C@@H](Cc1ccccc1)C(=O)N[C@@H](CCCNC(=N)N)C(=O)N[C@@H](CCCCN)C(=O)NCCNc1cccc2c(S(=O)(=O)O)cccc12) [Substrate#4]
Saliva (Saliva; [5]): 1515 +/− 40
Enzyme (SARS-CoV-2 3CL Pro; [6]): 1077 +/− 35

Dabcyl-KTSAVLQSGFRKME-EDANS [Commercial substrate, reference compound]
Saliva (Saliva; [5]): 2309 +/− 64
Enzymatic activity, Slope, HCoV-229E (HCoV-229E 3CL protease; Table 4: substrate 5 uM): 493 RFU/min
% Enz activity, HCoV-229E (HCoV-229E 3CL protease): 26%
cross reactivity SARS-CoV-2 versus HCoV-229E protease (HCoV-229E 3CL protease): greater activity towards SARS-CoV-2 than HCoV-229E protease
Enzymatic activity, Slope, HRV (HRV 3C protease; [7]): 87 RFU/min
% Enz activity, HRV (HRV 3C protease): 1%

Dabcyl-LEALFQGP[Asp-(EDANS) SQ [Amide] ({Dabcyl′}-LEALFQGPD(EDANS)SQ-NH2; SMILES CC(C)C[C@H](NC(=O)c1ccc(/N=N/c2ccc(N(C)C)cc2)cc1)C(=O)N[C@@H](CCC(=O)O)C(=O)N[C@@H](C)C(=O)N[C@@H](CC(C)C)C(=O)N[C@@H](Cc1ccccc1)C(=O)N[C@@H](CCC(N)=O)C(=O)NCC(=O)N1CCC[C@H]1C(=O)N[C@@H](CC(=O)NCCNc1cccc2c(S(=O)(=O)O)cccc12)C(=O)N[C@@H](CO)C(=O)N[C@@H](CCC(N)=O)C(N)=O) [Biosyn#7]
Enzymatic activity, Slope, HCoV-229E (HCoV-229E 3CL protease; Table 4: substrate 5 uM): 45 RFU/min
% Enz activity, HCoV-229E (HCoV-229E 3CL protease): 0%
Enzymatic activity, Slope, HRV (HRV 3C protease; [7]): 1041 RFU/min
% Enz activity, HRV (HRV 3C protease): 100%
specificity for HRV (HRV 3C protease; substrate 5 uM, enzyme 150 ng/reaction): specific for HRV
Enzymatic activity, Slope, SARS-CoV-2 (SARS-CoV-2 3CL Pro; Table 4: substrate 5 uM): 43 RFU/min
% Enz activity, SARS-CoV-2 (SARS-CoV-2 3CL Pro): 0%

Dabcyl-TSAVLQSGF-EDANS ({Dabcyl′}-TSAVLQSGF-{EDANS}; SMILES CC(C)C[C@H](NC(=O)[C@@H](NC(=O)[C@H](C)NC(=O)[C@H](CO)NC(=O)[C@@H](NC(=O)c1ccc(/N=N/c2ccc(N(C)C)cc2)cc1)[C@@H](C)O)C(C)C)C(=O)N[C@@H](CCC(N)=O)C(=O)N[C@@H](CO)C(=O)NCC(=O)N[C@@H](Cc1ccccc1)C(=O)NCCNc1cccc2c(S(=O)(=O)O)cccc12) [Substrate#2]
Saliva (Saliva; [5]): 187 +/− 7
Enzyme (SARS-CoV-2 3CL Pro; [6]): 449 +/− 36

Dabcyl-TSAVLQSGFRK-EDANS [Biosyn #1]
Saliva (Saliva; [5]): 1123 +/− 35
Enzymatic activity, Slope, HCoV-229E (HCoV-229E 3CL protease; Table 4: substrate 5 uM): 856 RFU/min
% Enz activity, HCoV-229E (HCoV-229E 3CL protease): 95%
cross reactivity SARS-CoV-2 versus HCoV-229E protease (HCoV-229E 3CL protease): Cross reactivity was detected
Enzymatic activity, Slope, HRV (HRV 3C protease; [7]): −12 RFU/min
% Enz activity, HRV (HRV 3C protease): −1* %

Dabcyl-TSAVLQSGFYK-EDANS ({Dabcyl′}-TSAVLQSGFYK-{EDANS}; SMILES CC(C)C[C@H](NC(=O)[C@@H](NC(=O)[C@H](C)NC(=O)[C@H](CO)NC(=O)[C@@H](NC(=O)c1ccc(/N=N/c2ccc(N(C)C)cc2)cc1)[C@@H](C)O)C(C)C)C(=O)N[C@@H](CCC(N)=O)C(=O)N[C@@H](CO)C(=O)NCC(=O)N[C@@H](Cc1ccccc1)C(=O)N[C@@H](Cc1ccc(O)cc1)C(=O)N[C@@H](CCCCN)C(=O)NCCNc1cccc2c(S(=O)(=O)O)cccc12) [Substrate#5]
Saliva (Saliva; [5]): 4688 +/− 53
Enzyme (SARS-CoV-2 3CL Pro; [6]): 527 +/− 7

Dabcyl-YGSTLQAGLRK-EDANS ({Dabcyl′}-YGSTLQAGLRK-{EDANS}; SMILES CC(C)C[C@H](NC(=O)CNC(=O)[C@H](C)NC(=O)[C@H](CCC(N)=O)NC(=O)[C@H](CC(C)C)NC(=O)[C@@H](NC(=O)[C@H](CO)NC(=O)CNC(=O)[C@H](Cc1ccc(O)cc1)NC(=O)c1ccc(/N=N/c2ccc(N(C)C)cc2)cc1)[C@@H](C)O)C(=O)N[C@@H](CCCNC(=N)N)C(=O)N[C@@H](CCCCN)C(=O)NCCNc1cccc2c(S(=O)(=O)O)cccc12) [Biosyn#6]
Enzymatic activity, Slope, HCoV-229E (HCoV-229E 3CL protease; Table 4: substrate 5 uM): 213 RFU/min
% Enz activity, HCoV-229E (HCoV-229E 3CL protease): 100%
cross reactivity SARS-CoV-2 versus HCoV-229E protease (HCoV-229E 3CL protease): greater activity towards SARS-CoV-2 than HCoV-229E protease
Enzymatic activity, Slope, HRV (HRV 3C protease; [7]): 44 RFU/min
% Enz activity, HRV (HRV 3C protease): −7* %
Enzymatic activity, Slope, SARS-CoV-2 (SARS-CoV-2 3CL Pro; Table 4: substrate 5 uM): 349 RFU/min
% Enz activity, SARS-CoV-2 (SARS-CoV-2 3CL Pro): 190%

[BHQ-1]-AVLQSGF-[Cys(AF488)]-RK-amide ({BHQ‑1}-AVLQSGFC(AF488)RK-NH2) [CBR #3]
Saliva (Saliva; [8]): 154 +/− 6
Enzyme (SARS-CoV-2 3CL Pro; [8]): 461 +/− 18

[BHQ-1]-AVLQSGFRK-[Cys(AF488)]-amide ({BHQ‑1}-AVLQSGFRKC(AF488)-NH2) [CBR #4]
Saliva (Saliva; [8]): 726 +/− 25
Enzyme (SARS-CoV-2 3CL Pro; [8]): 657 +/− 6

[BHQ-1]-TSAVLQSGF-[Cys(AF488)]-RK-amide ({BHQ‑1}-TSAVLQSGFC(AF488)RK-NH2; also: places amidation at residue 10) [CBR #2]
Saliva (Saliva; [8]): 512 +/− 16
Enzymatic activity, Slope, HCoV-229E (HCoV-229E 3CL protease; Table 6: substrate 1 μM): 1116 RFU/min
Enzymatic activity, Slope, HRV (HRV 3C protease; Table 6: substrate 1 μM, enzyme 150 ng/reaction): 9 RFU/min
Enzyme (SARS-CoV-2 3CL Pro; [8]): 6425 +/− 41
Enzymatic activity, Slope, SARS-CoV-2 (SARS-CoV-2 3CL Pro; Table 6: substrate 1 μM): 3536 RFU/min
signal to noise (SARS-CoV-2 3CL Pro; enzyme versus saliva, Table 3 conditions): 12.5

[BHQ-1]-TSAVLQSGFRK-[Cys(AF488)]-amide [CBR #1]
Saliva (Saliva; [8]): 1356 +/− 37

B1: Eglin C (protein)
chain: TEFGSELKSFPEVVGKTVDQAREYFTLHYPQYDVYFLPEGSPVTLDLRYNRVRVFYNPGTNVVNHVPHVG
non-specific protease activity in saliva [1]: decreased
inhibition of 3CL specific activity (3CL Protease [2]): non significant inhibition
non-specific protease activity [3]: decreased
ranking among 29 inhibitors tested [3]: four best inhibitors
inhibition of 3CL specific activity (3CL Protease [4]; buccal samples): non significant inhibition
